Measured values from patent US9732094B2, “Arylquinazolines” (Merck Patent GmbH, priority 2013, dated 2017).
Where two headings read alike, the source gives them in different places.

Legend:
Kv11.1 (hERG) = Kv11.1 (hERG) (Homo sapiens (Human), UniProt Q12809); experiment: Kv11.1 (hERG) ion channel activity (patch clamp assay), HEK293 cells transfected with hERG gene
DNA-PK = DNA-PK (Homo sapiens (Human), UniProt P78527); experiment: DNA-PK assay (biochemical), flashplate 33P-ATP kinase assay
Procedure, shortened: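 Reactions ran in streptavidin-coated flashplates and were halted by 200 mM EDTA, with a further 30 min at room temperature before saline washing.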

[1] = target: DNA-PK phosphorylation at serine 2056 (Homo sapiens (Human), UniProt P78527); experiment: DNA-PK phosphorylation at serine 2056 (cellular), bleomycin-treated HCT116 cells, ELISA; format: cell-based; settings: read-out: IC50 pDNA-PK
Procedure, shortened: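 Test compounds and bleomycin (10 μM) are added to adherent HCT116 cells for 6 h. Detection uses an HRP-based chemiluminescent ELISA, with phospho-DNA-PK signals standardised to total protein.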

[2] = Ki [Kv1.11 hERG], hERG patch clamp assay (cells without asterisk)
[3] = cellular DNA-PK phosphorylation at serine 2056, HCT116
[4] = read-out: Ki [Kv1.11 hERG], hERG patch clamp assay (cells without asterisk)
[5] = read-out: Ki [Kv1.11 hERG], patch clamp, HEK293 transfected with hERG gene
[6] = cellular, HCT116 cells, 10 μM bleomycin, six hours
[7] = Ki [Kv1.11 hERG], patch clamp, HEK293 transfected with hERG gene
[8] = read-out: Ki [Kv1.11 hERG], Table 5

Sequence of Kv11.1 (hERG) (Q12809 whole entry): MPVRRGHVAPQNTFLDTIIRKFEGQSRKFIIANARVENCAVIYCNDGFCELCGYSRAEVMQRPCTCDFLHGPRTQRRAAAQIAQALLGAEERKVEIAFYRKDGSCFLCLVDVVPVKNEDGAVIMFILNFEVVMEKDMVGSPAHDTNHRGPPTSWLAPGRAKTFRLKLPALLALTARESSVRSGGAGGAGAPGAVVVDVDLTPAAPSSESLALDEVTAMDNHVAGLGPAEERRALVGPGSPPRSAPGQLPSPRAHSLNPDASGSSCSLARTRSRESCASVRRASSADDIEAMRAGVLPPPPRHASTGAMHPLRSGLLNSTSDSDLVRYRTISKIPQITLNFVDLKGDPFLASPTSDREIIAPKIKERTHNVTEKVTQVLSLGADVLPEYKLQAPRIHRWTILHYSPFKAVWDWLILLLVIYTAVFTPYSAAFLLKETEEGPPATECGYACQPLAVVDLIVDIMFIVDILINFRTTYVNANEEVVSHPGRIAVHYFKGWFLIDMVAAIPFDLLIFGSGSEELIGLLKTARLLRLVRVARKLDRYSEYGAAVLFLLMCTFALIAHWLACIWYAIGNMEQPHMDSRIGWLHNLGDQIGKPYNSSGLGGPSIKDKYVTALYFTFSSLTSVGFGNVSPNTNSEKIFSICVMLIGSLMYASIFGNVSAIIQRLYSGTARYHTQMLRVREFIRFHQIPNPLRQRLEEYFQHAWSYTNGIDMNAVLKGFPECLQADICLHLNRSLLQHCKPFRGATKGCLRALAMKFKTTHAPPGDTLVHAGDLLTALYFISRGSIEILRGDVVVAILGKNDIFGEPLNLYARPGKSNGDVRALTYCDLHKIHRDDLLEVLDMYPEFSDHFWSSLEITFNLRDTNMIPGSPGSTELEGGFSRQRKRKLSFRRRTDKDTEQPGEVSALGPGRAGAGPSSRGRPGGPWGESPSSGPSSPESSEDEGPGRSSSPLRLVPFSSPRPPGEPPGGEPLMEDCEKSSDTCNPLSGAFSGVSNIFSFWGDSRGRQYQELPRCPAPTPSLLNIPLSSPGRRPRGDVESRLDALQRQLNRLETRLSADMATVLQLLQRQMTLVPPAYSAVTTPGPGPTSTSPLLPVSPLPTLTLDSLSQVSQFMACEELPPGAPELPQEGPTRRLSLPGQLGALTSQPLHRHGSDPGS

Compound | IC50 (DNA-PK; biochemical DNA-PK assay) [µM] | IC50 [1, 3] [µM] | IC50 (DNA-PK; enzymatic, 5 μM ATP) [µM] | IC50 [1, 6] [µM] | also measured
CCn1nc(C(O)c2cc(-c3ncnc4cc(N5CCOCC5)ccc34)c(F)cc2Cl)ccc1=O (stereo not drawn) [Example 97, 6-{[2-Chloro-4-fluoro-5-(7-morphohn-4-yl-quinazolin-4-yl)phenyl]-hydroxymethyl}-2-ethyl-2H-pyridazin-3-one] |  |  | < 0.003 | 0.5 to 5 | Ki (Kv11.1 (hERG); [5]): > 25 µM
OC(c1cnccn1)c1cc(-c2ncnc3cc(N4CCOCC4)ccc23)c(F)cc1Cl (stereo not drawn) [Example 34, [2-Chloro-4-fluoro-5-(7-morpholin-4-yl-quinazolin-4-yl)phenyl]-pyrazin-2-ylmethanol] |  |  | 0.007 to 0.03 | 5 to 10 | Ki (Kv11.1 (hERG); [7]): 15 to 25 µM
CCOc1cnnc(C(O)c2ccc(F)c(-c3ncnc4cc(N5CCOCC5)ccc34)c2)c1 (stereo not drawn) [Example 79, (5-Ethoxypyridazin-3-yl)-[4-fluoro-3-(7-morpholin-4-yl-quinazolin-4-yl)phenyl]-methanol] |  |  | > 0.03 | 5 to 10 | Ki (Kv11.1 (hERG); [7]): 15 to 25 µM
COc1ccc(C(C(N)=O)c2cc(-c3ncnc4cc(N5CCOCC5)ccc34)c(F)cc2Cl)nn1 (stereo not drawn) [Example 325, 2-[2-Chloro-4-f1uoro-5-(7-morpholin-4-yl-quinazolin-4-yl)-phenyl]-2-(6-methoxypyridazin-3-yl)acetamide] | > 0.03 | 10 to 30 |  |  | Ki (Kv11.1 (hERG); [2]): 15 to 25 µM
COCCOc1ccc(C(O)c2cc(-c3ncnc4cc(N5CCOCC5)ccc34)c(F)cc2Cl)nn1 (stereo not drawn) [Example 112, [2-Chloro-4-fluoro-5-(7-morpholin-4-yl-quinazolin-4-yl)-phenyl]-[6-(2-methoxyethoxy)-pyridazin-3-yl]-methanol] |  |  | < 0.003 | 0.5 to 5 | Ki (Kv11.1 (hERG); [7]): 15 to 25 µM
Cc1nc([C@H](O)c2cnc(F)c(-c3ncnc4cc(N5CCOCC5)ncc34)c2)sc1C [Example 204, (R)-(4,5-Dimethyl-thiazol-2-yl)-[6-fluoro-5-(7-morpholin-4-yl-pyrido[4,3-d}-pyrimidin-4-yl)-pyridin-3-yl]-methanol] |  |  |  |  | Ki (Kv11.1 (hERG); Ki [Kv1.11 hERG], Table 5): 10 to 15 µM; IC50 (DNA-PK; Table 5): > 0.03 µM; IC50 ([1]; Table 5, HCT116 cells): 10 to 30 µM
Cc1nc(C(O)c2cnc(F)c(-c3ncnc4cc(N5CCOCC5)ncc34)c2)sc1C (stereo not drawn) [Example 203, (4,5-Dimethyl-thiazol-2-yl)-[6-fluoro-5-(7-morpholin-4-yl-pyrido[4,3-d}-pyrimidin-4-yl)-pyridin-3-yl]-methanol] |  |  |  |  | Ki (Kv11.1 (hERG); [8]): > 25 µM; IC50 (DNA-PK; Table 5): > 0.03 µM; IC50 ([1]; Table 5, HCT116 cells): 10 to 30 µM
OCCOc1ccc(C(O)c2cc(-c3ncnc4cc(N5CCOCC5)ccc34)c(F)cc2Cl)nn1 (stereo not drawn) [Example 116, 2-(6-{[2-Chloro-4-fluoro-5-(7-morpholin-4-yl-quinazolin-4-yl)-phenyl]hydroxy-methyl}pyridazin-3-yl-oxy)ethanol] |  |  | < 0.003 | 0.5 to 5 | Ki (Kv11.1 (hERG); [5]): > 25 µM
OCc1csc([C@@H](O)c2cc(-c3ncnc4cc(N5CCOCC5)ccc34)c(F)cc2Cl)n1 [Example 185, (S)-[2-Chloro-4-fluoro-5-(7-morpholin-4-yl-quinazolin-4-yl)-phenyl]-(4-hydroxymethyl-thiazol-2-yl)-methanol] |  |  |  |  | Ki (Kv11.1 (hERG); [8]): > 25 µM; IC50 (DNA-PK; Table 5): < 0.003 µM; IC50 ([1]; Table 5, HCT116 cells): 0.5 to 5 µM
COc1cnc(C(O)c2ccc(F)c(-c3ncnc4cc(N5CCOCC5)ccc34)c2)cn1 (stereo not drawn) [Example 53, [4-Fluoro-3-(7-morpholin-4-yl-quinazolin-4-yl)phenyl]-(5-methoxy-pyrazin-2-yl)methanol] |  |  | 0.003 to 0.007 | 5 to 10 | Ki (Kv11.1 (hERG); [5]): > 25 µM
CC(C#N)Oc1ccc(C(O)c2cc(-c3ncnc4cc(N5CCOCC5)ccc34)c(F)cc2Cl)nn1 (single isomer, unassigned) [Example 103, 2-(6-{[2-Chloro-4-fluoro-5-(7-morpholin-4-yl-quinazolin-4-yl)-phenyl]hydroxy-methyl}pyridazin-3-yloxy)propionitrile] |  |  | > 0.03 | 10 to 30 | Ki (Kv11.1 (hERG); [5]): > 25 µM
COc1ccc(C(O)c2cc(-c3ncnc4cc(N5CCOCC5)ccc34)c(F)cc2F)cc1 (stereo not drawn) [Example 120, [2.4-Difluoro-5-(7-morpholin-4-yl-quinazolin-4-yl)-phenyl]-(4-methoxyphenyl)-methanol] |  |  | 0.007 to 0.03 | 0.5 to 5 | Ki (Kv11.1 (hERG); [5]): < 10 µM
OC(c1cnc(F)c(-c2ncnc3cc(N4CCOCC4)ccc23)c1)c1nccs1 (stereo not drawn) [Example 180, [6-Fluoro-5-(7-morpholin-4-yl-quinazolin-4-yl)-pyridin-3-yl]thiazol-2-ylmethanol] |  |  |  |  | Ki (Kv11.1 (hERG); [8]): < 10 µM; IC50 (DNA-PK; Table 5): < 0.003 µM; IC50 ([1]; Table 5, HCT116 cells): 5 to 10 µM
COc1nnc(C(O)c2cc(-c3ncnc4cc(N5CCOCC5)ccc34)c(F)cc2Cl)cc1C (stereo not drawn) [Example 110, [2-Chloro-4-fluoro-5-(7-morpholin-4-yl-quinazolin-4-yl)-phenyl]-(6-methoxy-5-methylpyridazin-3-yl)methanol] |  |  | 0.007 to 0.03 | 0.5 to 5 | Ki (Kv11.1 (hERG); [7]): 10 to 15 µM
OC(c1ccc(F)c(-c2ncnc3cc(N4CCOCC4)sc23)c1)c1nccnc1Cl (single isomer, unassigned) [Example 24, (3-Chloro-pyrazin-2-yl)-[4-fluoro-3-(6-morpholin-4-yl-thieno-[3,2-d}pyrimidin-4-yl)-phenyl]methanol] |  |  | < 0.003 | < 0.5 | Ki (Kv11.1 (hERG); human, HEK293 cells stably transfected with the hERG gene, Ki [Kv1.11 hERG], patch clamp, HEK293 transfected with hERG gene): 15 to 25 µM
Cn1cnc2ncnc(C(O)c3cc(-c4ncnc5cc(N6CCOCC6)ccc45)c(F)cc3Cl)c21 (stereo not drawn) [Example 423, [2-Chloro-4-fluoro-5-(7-morpholin-4-yl-quinazolin-4-yl)-phenyl]-(7-methyl-7H-purin-6-yl)-methanol] | 0.007 to 0.03 | 5 to 10 |  |  | Ki (Kv11.1 (hERG); [4]): > 25 µM
[2H]C1([2H])OC([2H])([2H])C([2H])([2H])N(c2ccc3c(-c4cc(C(O)c5nccnc5OC)c(Cl)cc4F)ncnc3c2)C1([2H])[2H] (stereo not drawn) [Example 241, [2-Chloro-4-fluoro-5-[7-(2,2,3,3,5,5,6,6-octadeuteriomorpholin-4-yl)quinazolin-4-yl]phenyl]-(3-methoxypyrazin-2-yl)methanol] | < 0.003 | < 0.5 |  |  | Ki (Kv11.1 (hERG); [2]): 10 to 15 µM
Cc1cnnc(C(O)c2cc(-c3ncnc4cc(N5CCOCC5)ccc34)c(F)cc2Cl)c1 (stereo not drawn) [Example 46, [2-Chloro-4-fluoro-5-(7-morpholin-4-yl-quinazolin-4-yl)phenyl]-(5-methylpyridazin-3-yl)methanol] |  |  | 0.007 to 0.03 | 5 to 10 | Ki (Kv11.1 (hERG); [7]): 15 to 25 µM

Continued, in another order:

IC50 (DNA-PK; biochemical DNA-PK assay) [µM] | IC50 [1, 3] [µM] | IC50 (DNA-PK; enzymatic, 5 μM ATP) [µM] | IC50 [1, 6] [µM] | Compound | also measured
0.007 to 0.03 | 0.5 to 5 |  |  | Cc1cncnc1C(O)c1cc(-c2ncnc3cc(N4CCOCC4)ccc23)ccc1Cl (stereo not drawn) [Example 417, [2-Chloro-5-(7-morpholin-4-yl-quinazolin-4-yl)-phenyl]-(5-methyl-pyrimidin-4-yl)-methanol] | Ki (Kv11.1 (hERG); [2]): 15 to 25 µM
0.007 to 0.03 | 10 to 30 |  |  | COc1nccnc1C(O)c1cc(-c2ncnc3cc(N4CCOCC4)cnc23)c(F)cc1Cl (stereo not drawn) [Example 232, [2-Chloro-4-fluoro-5-(7-morpholin-4-yl-pyrido[3,2-d}-pyrimidin-4-yl)-phenyl]-(3-methoxy-pyrazin-2-yl)-methanol] | Ki (Kv11.1 (hERG); [4]): > 25 µM
0.007 to 0.03 | 5 to 10 |  |  | COc1nccnc1C(C(N)=O)c1cc(-c2ncnc3cc(N4CCOCC4)ccc23)c(F)cc1F (stereo not drawn) [Example 319, 2-[2,4-Difluoro-5-(7-morpholin-4-ylquinazolin-4-yl)phenyl]-2-(3-methoxypyrazin-2-yl)acetamide] | Ki (Kv11.1 (hERG); [4]): > 25 µM
0.003 to 0.007 | < 0.5 |  |  | OC(c1cc(-c2ncnc3cc(N4CCOCC4)ccc23)ccc1Cl)c1ncnc2ccoc12 (stereo not drawn) [Example 415, [2-Chloro-5-(7-morpholin-4-yl-quinazolin-4-yl)-phenyl]furo[3,2-d}-pyrimidin-4-yl-methanol] | Ki (Kv11.1 (hERG); [4]): 10 to 15 µM
 |  | 0.003 to 0.007 | 0.5 to 5 | C#Cc1nc(-c2cc(C(O)c3nccs3)ccc2F)c2ccc(N3CCOCC3)cc2n1 (stereo not drawn) [Example 208, [3-(2-Ethynyl-7-morpholinylquinazolin-4-yl)-4-fluorophenyl]thiazol-2-ylmethanol] | Ki (Kv11.1 (hERG); [5]): < 10 µM
0.007 to 0.03 | 5 to 10 |  |  | OC(c1cc(-c2ncnc3cc(N4CCOCC4)ccc23)ccc1Cl)c1nccn2ccnc12 (stereo not drawn) [Example 369, [2-Chloro-5-(7-morpholin-4-yl-quinazolin-4-yl)-phenyl]imidazo-[1,2-a]pyrazin-8-yl-methanol] | Ki (Kv11.1 (hERG); [2]): 15 to 25 µM
0.003 to 0.007 | 5 to 10 |  |  | NC(=O)C(c1cccnc1)c1cc(-c2ncnc3cc(N4CCOCC4)ccc23)c(F)cc1Cl (stereo not drawn) [Example 293, 2-[2-Chloro-4-fiuoro-5-(7-morpholin-4-yl-quinazolin-4-yl)-phenyl]-2-pyridin-3-ylacetamide] | Ki (Kv11.1 (hERG); [4]): > 25 µM
0.007 to 0.03 | 10 to 30 |  |  | NC(=O)C(c1cccnc1)c1ccc(F)c(-c2ncnc3cc(N4CCOCC4)ccc23)c1 (stereo not drawn) [Example 295, 2-[4-Fluoro-3-(7-morpholin-4-yl-quinazolin-4-yl)-phenyl]-2-pyridin-3-ylacetamide] | Ki (Kv11.1 (hERG); [4]): > 25 µM
0.007 to 0.03 | 0.5 to 5 |  |  | Cn1ncc2c(C(O)c3cc(-c4ncnc5cc(N6CCOCC6)ccc45)ccc3F)ncnc21 (stereo not drawn) [Example 391, [2-Fluoro-5-(7-morpholin-4-yl-quinazolin-4-yl)-phenyl]-(1-methyl-1H-pyrazolo[3,4-d}-pyrimidin-4-yl)-methanol] | Ki (Kv11.1 (hERG); [2]): 15 to 25 µM
